Assay results taken from patent US10562922B2, “Silicon based cyclic compounds and pharmaceutical compositions for treating malaria and toxoplasmosis” (Council of Scientific and Industrial Research, priority 2016, dated 2020).
Where “and” joins values, the source holds several entries; their conditions need not be identical. Identical values can stand only once. Like-named read-outs stand apart in the source and are kept apart here.

What was measured:
T. gondii = test: Anti-toxoplasma screening (TgLuc+ luciferase growth assay in HFF host cells); type: cell-based, Toxoplasma gondii
Text: b) Anti-toxoplasma Screening:
For screening bioactivity of test molecules against T. gondii, a transgenic line of the parasite (TgLuc+) expressing the luciferase gene is used [Edwin Kamau, Tracy Meehan, Mark D. Lavine, Gustavo Arrizabalaga, Gabriela Mustata Wilson and Jon Boyle. A Novel Benzodioxole-Containing Inhibitor of Toxoplasmagondii Growth Alters the Parasite Cell Cycle. Antimicrob Agents Chemother. 2011, 55(12): 5438-5451]. The parental parasite used to generate the TgLuc+ strain is aType I (RH) virulent strain (ATCC reference 50174D), which can also be used for in vivo studies in mice, if needed. The tachyzoite stage of the parasites are routinely cultured in the laboratory using standard protocols [Roos D S, Donald R G, Morrissette N S, Moulton A L. Molecular tools for genetic dissection of the protozoan parasite Toxoplasma gondii. Methods Cell Biol. 1994, 45:27-63]. In brief, a confluent monolayer of Human Foreskin Fibroblast (HFF; ATCC reference SCRS-1041) cells in culture are used as the host cells for infection with tachyzoitestage T. gondii. The culture media used to grow parasites is standard complete DMEM (Gibco BRL, USA) containing glucose (5.5 mM), glutamine (2 mM), Hepes (25 mM) and 1% dialyzed bovine fetal calf serum (Gibco BRL, USA). For bioactivity assays, the HFF cells are grown in 96 well plates and each well is infected with 1×10^4TgLuc+parasitesin the presence of 10 μM test molecules (in primary screens) in a total volume of 200 μL. After 2 days of incubation and growth in a 37° C. incubator maintaining 5% CO2, the 96 well plates are processed for luminescence measurements using the reagents in the luciferase assay kit (Promega, USA). The results are corrected for background (uninfected HFF cultures), and normalized against both positive (untreated parasite cultures) and negative (standard drug treated parasite cultures) to identify those molecules with % inhibition values >80% for further dose analysis and IC50 determination using a dilution series ranging from 10 μM to 1 nM. Data from the preliminary screen (@ 10 μM only) is shown in Table-1 and dose response experiments are underway.

[1] = tested on: Plasmodium falciparum (3D7); test: Anti-malarial screening (SybrGreen parasite growth assay); type: cell-based; conditions: for inhibition at 10 µM: read-out: % inhibition (P. falciparum)
Description: a) Anti-malarial Screening:
Plasmodium falciparum (3D7; Malaria Research and Reference Reagent Resource Center ID NO: MRA-102) is cultured in the laboratory as per standard protocols [Moll K., Ljungström I., Perlmann H., Scherf A., and Wahlgren M., (Editors). Methods in Malaria Research. Joint publication by Malaria Research and Reference Reagent Resource Center (MR4), ATCC, USA and BioMalPar, EU. 2008]. Briefly, P. falciparum is cultured using 2% hematocrit washed RBCs, separated from freshly collected human blood, in RPMI media containing glutamine, sodium bicarbonate and antibiotics. Parasites are routinely synchronized using 5% sorbitol treatment. Anti-malarial screens are carried out in two stages: 1) a primary screen at a fixed concentration of 10 μM to find out % inhibition of growth; and 2) a dose assay for finding out the IC50 for hits identified from the primary screen. Assays are setup as follows. 200 μls of the diluted parasite culture (2% parasitemia and 2% hematocrit; at late ring stage), is added to each well in a 96 well plate pre-seeded with the compound of interest at the required concentration of 10 μM. The master stocks and dilutions of the compounds are prepared in cell culture grade DMSO. NOTE: DMSO only treatment control is done and the results are used for normalizing the data obtained from compound treatment. All compounds are plated in triplicates. Each 96 well plate also includes negative controls (compound untreated culture) and positive controls (standard anti-malarial treated culture). Standard anti-malarials used are chloroquine, artemisinine and atovaquone, each at 1 μM concentration. After plating, the culture is incubated in standard growth condition for 60 hours, after which the cultures are processed for testing the effect of compounds on parasite growth using SybrGreen staining and fluorescence measurements at […] emmission following excitation at 498 nm. Since only parasites have DNA (as RBCs are devoid of nucleus), the SybrGreen signal is a direct indictor of parasitemia in respective samples. Results are used to quantifying relative parasite growth (or conversely % inhibition of growth) in untreated, standard anti-malarial treated and test molecule treated P. falciparum cultures. […] Data from the preliminary screen (@ 10 μM only) along with data from the dose response experiment and IC50 values for the selected molecules are tabulated in Table-2.

[2] = primary screen at 10 μM, TgLuc+ tachyzoites in HFF cells, 2 days incubation
[3] = dose response, dilution series 10 μM to 1 nM, 3D7, read-out: IC50(P. falciparum)
[4] = primary screen at 10 μM, 3D7, 60 hours incubation
[5] = Toxoplasma gondii, 48 h; primary screen at 10 μM, TgLuc+ tachyzoites in HFF cells, 2 days incubation
[6] = Plasmodium falciparum, 3D7, dose response, dilution series 10 μM to 1 nM, 3D7, read-out: IC50(P. falciparum)
[7] = Plasmodium falciparum, primary screen at 10 μM, 3D7, 60 hours incubation
[8] = Plasmodium falciparum, 3D7, 60 h
[9] = Plasmodium falciparum, 3D7, read-out: IC50(P. falciparum, μM), dose response, dilution series 10 μM to 1 nM, 3D7

Compound	IC50 [1, 3]	inhibition at 10 µM (T. gondii; [5]) [%]	IC50 [1, 6] [µM]	inhibition at 10 µM [1, 7] [%]	further results
1,1-dibenzyl-4,4-diphenyl-1λ4,4-azasilinan-2-ylium bromide [NDS 100953]	1.69 µM				% inhibition (T. gondii) (T. gondii; [2]): 39%; % inhibition (P. falciparum) [1, 4]: 94.96%
1-benzyl-1-ethyl-4,4-diphenyl-1λ4,4-azasilinan-2-ylium iodide [NDS 100952]	0.33 µM				IC50 (T. gondii; dose response, dilution series 10 μM to 1 nM; read-out: IC50 (T gondii)): 1240 nM; % inhibition (T. gondii) (T. gondii; [2]): 72.06%; % inhibition (P. falciparum) [1, 4]: 104.01%
c1ccc(CN2CC[Si](c3ccccc3)(c3ccccc3)CC2)cc1 [NDS 100860]	2.3 µM	99.4	1.75	112	IC50 (T. gondii; read-out: IC50 (T gondii); dose response, dilution series 10 μM to 1 nM): 5030 nM and 2090 nM
C[N+]1(Cc2ccccc2)CC[Si](c2ccccc2)(c2ccccc2)CC1 [NDS 100861]	2.39 µM	36	1.64	115	
CC(C)=CC[N+]1(CC=C(C)C)CC[Si](c2ccccc2)(c2ccccc2)CC1 [NDS 101015, 1,1-bis(3-methylbut-2-en-1-yl)-4,4-diphenyl-1,4-azasilinan-1-ium bromide]		20			inhibition at 10 µM [1, 8]: 103%; IC50 [1, 9]: 0.48 µM; IC50 ([1]; read-out: IC50(P. falciparum), dose response, dilution series 10 μM to 1 nM, 3D7): 0.29 µM
c1ccc([Si]2(c3ccccc3)CC[N+]3(CCCCC3)CC2)cc1 [NDS 101017]	2.07 µM and 4.98 µM	0		87.1	
C=CC[N+]1(C)CC[Si](c2ccccc2)(c2ccccc2)CC1 [NDS 101039, 1-allyl-1-methyl-4,4-diphenyl-1,4-azasilinan-1-ium bromide]		17			inhibition at 10 µM [1, 8]: 76.2%; IC50 [1, 9]: 7.11 µM
C[N+]1(C)CC[Si](c2ccccc2)(c2ccccc2)CC1 [NDS 101044, 1,1-dimethyl-4,4-diphenyl-1,4-azasilinan-1-ium iodide]		0	2.46	63.5	
